Where “and” joins values, the source holds several entries; their conditions need not be identical. Equal entries are not always repeated. Toxic doses and inconclusive results are not listed.
Test system: BDF1 mice, B16 melanoma ip, median survival T/C
Experiment: NCI In Vivo Anticancer Drug Screen. Data for tumor model B16 Melanoma (intraperitoneal) in B6D2F1 (BDF1) mice
Conditions: endpoint: median survival time, higher = longer survival
Procedure, shortened: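 Compounds were tested in mice carrying transplantable tumors. Survival or tumor size was recorded, and each value is the treated-group measurement (T) divided by that of the vehicle-treated control group (C).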

[1] = dose: 100.0 mg/kg/injection, schedule: Q01DX009 (ip), vehicle: saline with Tween-80
[2] = dose: 200.0 mg/kg/injection, schedule: Q01DX009 (ip), vehicle: saline with Tween-80
[3] = dose: 400.0 mg/kg/injection, schedule: Q01DX009 (ip), vehicle: saline with Tween-80
[4] = dose: 25.0 mg/kg/injection, schedule: Q01DX009 (ip), vehicle: Klucel (hydroxypropylcellulose) (HPC)
[5] = dose: 50.0 mg/kg/injection, schedule: Q01DX009 (ip), vehicle: Klucel (hydroxypropylcellulose) (HPC)
[6] = dose: 100.0 mg/kg/injection, schedule: Q01DX009 (ip), vehicle: Klucel (hydroxypropylcellulose) (HPC)
[7] = dose: 100.0 mg/kg/injection, schedule: Q01DX009 (ip), vehicle: saline
[8] = dose: 200.0 mg/kg/injection, schedule: Q01DX009 (ip), vehicle: saline
[9] = dose: 400.0 mg/kg/injection, schedule: Q01DX009 (ip), vehicle: saline
[10] = dose: 12.5 mg/kg/injection, schedule: Q01DX009 (ip), vehicle: Klucel (hydroxypropylcellulose) (HPC)
[11] = dose: 6.25 mg/kg/injection, schedule: Q01DX009 (ip), vehicle: Klucel (hydroxypropylcellulose) (HPC)

Question: How did the T/C (dose: 30.0 mg/kg/injection, schedule: Q01DX009 (ip), vehicle: saline with Tween-80) turn out when `CC1(C)N=C(N)N=C(N)N1c1cccc(CCC(=O)Nc2ccc(S(=O)(=O)F)cc2)c1` was run?
Answer: 113 % of control

Question: And the T/C (dose: 60.0 mg/kg/injection, schedule: Q01DX009 (ip), vehicle: saline with Tween-80)?
Answer: 123 % of control

Question: And the T/C (dose: 120.0 mg/kg/injection, schedule: Q01DX009 (ip), vehicle: saline with Tween-80)?
Answer: 110 % of control

Question: With `CN(C(=O)c1cccnc1)c1ccccc1` as the molecule, how does the T/C [1] read?
Answer: 109 % of control

Question: What about the T/C [2] of the same molecule?
Answer: 118 % of control

Question: What about the T/C [3] of the same molecule?
Answer: 111 % of control

Question: For `Oc1ccc(Br)cc1-c1nc2cc(Cl)c(Cl)cc2nc1-c1cc(Br)ccc1O`, which T/C [4] is on record?
Answer: 87 % of control

Question: What about the T/C [5] of the same molecule?
Answer: 86 % of control

Question: What about the T/C [6] of the same molecule?
Answer: 91 % of control and 94 % of control

Question: With `COc1ccc2c(c1)N(CCCN(C)C)c1ccccc1S2` as the molecule, how does the T/C (dose: 2.34 mg/kg/injection, schedule: Q01DX009 (ip), vehicle: saline) read?
Answer: 102 % of control

Question: And the T/C (dose: 4.68 mg/kg/injection, schedule: Q01DX009 (ip), vehicle: saline)?
Answer: 110 % of control

Question: What about the T/C (dose: 18.75 mg/kg/injection, schedule: Q01DX009 (ip), vehicle: saline) of the same molecule?
Answer: 102 % of control

Question: What about the T/C (dose: 37.5 mg/kg/injection, schedule: Q01DX009 (ip), vehicle: saline) of the same molecule?
Answer: 110 % of control

Question: Which results are given for `O=NN(CCF)C(=O)N[C@H]1CCCC[C@H]1O`?
Answer: T/C (dose: 3.75 mg/kg/injection, schedule: Q01DX001 (ip), vehicle: saline): 100 % of control; T/C (dose: 7.5 mg/kg/injection, schedule: Q01DX001 (ip), vehicle: saline): 105 % of control; T/C (dose: 15.0 mg/kg/injection, schedule: Q01DX001 (ip), vehicle: saline): 101 % of control; T/C (dose: 60.0 mg/kg/injection, schedule: Q01DX001 (ip), vehicle: saline): 222 % of control

Question: For `CC(=O)NCC1(c2ccccc2)CCN(CCCC(=O)c2ccc(F)cc2)CC1`, which T/C [5] is on record?
Answer: 93 % of control

Question: What about the T/C [6] of the same molecule?
Answer: 106 % of control

Question: What does the source list for `CCOC(CNC(=O)CC(C)=O)OCC`?
Answer: T/C [7]: 110 % of control; T/C [8]: 118 % of control; T/C [9]: 106 % of control

Question: `Cc1ccccc1C(=O)NCC(=O)O` was tested. Which T/C [1] did it give?
Answer: 107 % of control

Question: What about the T/C [2] of the same molecule?
Answer: 99 % of control

Question: And the T/C [3]?
Answer: 95 % of control

Question: Which T/C (dose: 100.0 mg/kg/injection, schedule: Q04DX003 (ip), vehicle: other) does the source give for `CC(C)C(C(=O)c1ccccc1)C(c1ccccc1)c1ccccc1` (stereo unspecified) here?
Answer: 92 % of control

Question: And the T/C (dose: 200.0 mg/kg/injection, schedule: Q04DX003 (ip), vehicle: other)?
Answer: 94 % of control

Question: How did the T/C (dose: 0.5 mg/kg/injection, schedule: Q01DX009 (ip), vehicle: Klucel (hydroxypropylcellulose) (HPC)) turn out when `COc1cc(OC)c2c(O)c3c(c(-c4ccc5cc6c(c(O)c5c4O)C(=O)CC(C)(O)C6)c2c1)CC(C)OC3C` (stereo unspecified) was run?
Answer: 94 % of control

Question: And the T/C (dose: 1.0 mg/kg/injection, schedule: Q01DX009 (ip), vehicle: Klucel (hydroxypropylcellulose) (HPC))?
Answer: 102 % of control

Question: And the T/C (dose: 2.0 mg/kg/injection, schedule: Q01DX009 (ip), vehicle: Klucel (hydroxypropylcellulose) (HPC))?
Answer: 111 % of control

Question: With `Cc1ccc(NC(=O)c2ccccc2)cc1[As]=[As]c1cc(NC(=O)c2ccccc2)ccc1C` (stereo unspecified) as the molecule, how does the T/C (dose: 0.04 mg/kg/injection, schedule: Q01DX009 (ip), vehicle: saline with Tween-80) read?
Answer: 107 % of control

Question: What about the T/C (dose: 0.08 mg/kg/injection, schedule: Q01DX009 (ip), vehicle: saline with Tween-80) of the same molecule?
Answer: 102 % of control

Question: What about the T/C (dose: 0.08 mg/kg/injection, schedule: Q04DX003 (ip), vehicle: saline) of the same molecule?
Answer: 101 % of control

Question: And the T/C (dose: 0.15 mg/kg/injection, schedule: Q01DX009 (ip), vehicle: saline with Tween-80)?
Answer: 104 % of control

Question: And the T/C (dose: 0.15 mg/kg/injection, schedule: Q04DX003 (ip), vehicle: saline)?
Answer: 91 % of control

Question: And the T/C (dose: 0.16 mg/kg/injection, schedule: Q04DX003 (ip), vehicle: Klucel (hydroxypropylcellulose) (HPC))?
Answer: 101 % of control

Question: And the T/C (dose: 0.3 mg/kg/injection, schedule: Q01DX009 (ip), vehicle: saline with Tween-80)?
Answer: 100 % of control

Question: What about the T/C (dose: 0.3 mg/kg/injection, schedule: Q04DX003 (ip), vehicle: saline) of the same molecule?
Answer: 92 % of control

Question: And the T/C (dose: 0.31 mg/kg/injection, schedule: Q04DX003 (ip), vehicle: Klucel (hydroxypropylcellulose) (HPC))?
Answer: 98 % of control

Question: What about the T/C (dose: 0.6 mg/kg/injection, schedule: Q04DX003 (ip), vehicle: saline) of the same molecule?
Answer: 91 % of control

Question: And the T/C (dose: 0.63 mg/kg/injection, schedule: Q04DX003 (ip), vehicle: saline with Tween-80)?
Answer: 89 % of control

Question: What about the T/C (dose: 2.5 mg/kg/injection, schedule: Q04DX003 (ip), vehicle: saline with Tween-80) of the same molecule?
Answer: 161 % of control

Question: And the T/C (dose: 5.0 mg/kg/injection, schedule: Q04DX003 (ip), vehicle: saline with Tween-80)?
Answer: 105 % of control

Question: Which results are given for `CCC[CH2][Hg][O]C(C)=O`?
Answer: T/C (dose: 0.63 mg/kg/injection, schedule: Q01DX009 (ip), vehicle: other): 99 % of control; T/C (dose: 1.25 mg/kg/injection, schedule: Q01DX009 (ip), vehicle: other): 89 % of control; T/C (dose: 2.5 mg/kg/injection, schedule: Q01DX009 (ip), vehicle: other): 86 % of control

Question: Which results are given for `CN(C)c1ccc(/C=C/c2cc[n+](C)cc2)cc1`?
Answer: T/C (dose: 1.32 mg/kg/injection, schedule: Q04DX003 (ip), vehicle: saline with Tween-80): 95 % of control; T/C (dose: 4.0 mg/kg/injection, schedule: Q04DX003 (ip), vehicle: saline with Tween-80): 150 % of control; T/C (dose: 8.0 mg/kg/injection, schedule: Q04DX003 (ip), vehicle: saline with Tween-80): 117 % of control

Question: What does the source list for `CCC1(C)CC(=O)NC(=O)C1`?
Answer: T/C (dose: 0.93 mg/kg/injection, schedule: Q01DX009 (ip), vehicle: saline): 110 % of control; T/C (dose: 1.87 mg/kg/injection, schedule: Q01DX009 (ip), vehicle: saline): 97 % of control; T/C (dose: 3.75 mg/kg/injection, schedule: Q01DX009 (ip), vehicle: saline): 110 % of control; T/C (dose: 7.5 mg/kg/injection, schedule: Q01DX009 (ip), vehicle: saline): 107 % of control; T/C (dose: 15.0 mg/kg/injection, schedule: Q01DX009 (ip), vehicle: saline): 107 % of control

Question: For `N=C(N)SCc1cccc([N+](=O)[O-])c1`, which T/C [10] is on record?
Answer: 93 % of control

Question: And the T/C [4]?
Answer: 103 % of control

Question: What about the T/C [5] of the same molecule?
Answer: 97 % of control

Question: Which results are given for `CCN(CC)C(=O)C1CN2CCc3cc(OC)c(OC)cc3C2CC1O` (stereo unspecified)?
Answer: T/C (dose: 25.0 mg/kg/injection, schedule: Q01DX009 (ip), vehicle: saline): 90 % of control; T/C (dose: 50.0 mg/kg/injection, schedule: Q01DX009 (ip), vehicle: saline): 100 % of control; T/C [7]: 100 % of control; T/C [8]: 102 % of control; T/C [9]: 100 % of control

Question: Which results are given for `Cc1cnccc1Br`?
Answer: T/C (dose: 25.0 mg/kg/injection, schedule: Q01DX009 (ip), vehicle: water): 96 % of control; T/C (dose: 50.0 mg/kg/injection, schedule: Q01DX009 (ip), vehicle: water): 97 % of control

Question: What does the source list for `COc1cccc(N2C(=O)CSC2=S)c1`?
Answer: T/C [6]: 93 % of control; T/C (dose: 200.0 mg/kg/injection, schedule: Q01DX009 (ip), vehicle: Klucel (hydroxypropylcellulose) (HPC)): 90 % of control

Question: How did the T/C (dose: 3.12 mg/kg/injection, schedule: Q04DX003 (ip), vehicle: saline with Tween-80) turn out when `ClCCN(CCCl)CCCN1c2ccccc2Sc2ccccc21` was run?
Answer: 109 % of control

Question: What about the T/C (dose: 6.25 mg/kg/injection, schedule: Q04DX003 (ip), vehicle: saline with Tween-80) of the same molecule?
Answer: 97 % of control

Question: `COC(=O)C1C(O)C(C)C(O)C(C)C=C(C)C2=C3C(=C(C)C(=O)c4c(O)c(c(C)c(OC(C)=O)c43)NC(=O)C(C)=C/C=C\C(C)C(O)C(C)C1O)OCO2` (stereo unspecified) was tested. Which T/C [11] did it give?
Answer: 97 % of control

Question: What about the T/C [10] of the same molecule?
Answer: 94 % of control

Question: And the T/C [4]?
Answer: 88 % of control

Question: And the T/C (dose: 25.0 mg/kg/injection, schedule: Q01DX009 (ip), vehicle: carboxymethylcellulose (CMC))?
Answer: 112 % of control

Question: And the T/C (dose: 50.0 mg/kg/injection, schedule: Q01DX009 (ip), vehicle: carboxymethylcellulose (CMC))?
Answer: 112 % of control

Question: What about the T/C [6] of the same molecule?
Answer: 89 % of control

Question: With `CS(=O)(=O)OCCCCCCCCCOS(C)(=O)=O` as the molecule, how does the T/C [4] read?
Answer: 94 % of control

Question: What about the T/C [5] of the same molecule?
Answer: 88 % of control

Question: What about the T/C [6] of the same molecule?
Answer: 102 % of control

Question: For `COC(=O)CC1(O)C=CC(=O)C=C1`, which T/C (dose: 1.56 mg/kg/injection, schedule: Q01DX009 (ip), vehicle: Klucel (hydroxypropylcellulose) (HPC)) is on record?
Answer: 95 % of control

Question: And the T/C (dose: 2.5 mg/kg/injection, schedule: Q01DX009 (ip), vehicle: saline with Tween-80)?
Answer: 98 % of control

Question: And the T/C (dose: 3.12 mg/kg/injection, schedule: Q01DX009 (ip), vehicle: Klucel (hydroxypropylcellulose) (HPC))?
Answer: 96 % of control

Question: What about the T/C (dose: 5.0 mg/kg/injection, schedule: Q01DX009 (ip), vehicle: saline with Tween-80) of the same molecule?
Answer: 102 % of control

Question: What about the T/C [11] of the same molecule?
Answer: 97 % of control

Question: And the T/C (dose: 10.0 mg/kg/injection, schedule: Q01DX009 (ip), vehicle: saline with Tween-80)?
Answer: 93 % of control

Question: And the T/C [10]?
Answer: 94 % of control

Question: And the T/C (dose: 20.0 mg/kg/injection, schedule: Q01DX009 (ip), vehicle: saline with Tween-80)?
Answer: 102 % of control

Question: What about the T/C [4] of the same molecule?
Answer: 91 % of control
